Like-named read-outs stand apart in the source and are kept apart here.
Experiments:
D3 receptor = target: T1, D3 receptor (Homo sapiens, UniProt P35462); experiment: cAMP content in cells stably expressing D3 receptors (CHO-D3, forskolin, HTRF); assay type: cell-based
T1 construct: expressed in transfected cells

[1] = Pharmacokinetic assay in Balb/c mice (plasma and brain tissue); assay type: in vivo; conditions: male, mouse, po, p.o. 5 mg/kg; for AUC(0-t): read-out: Area under curve AUC0-t; for Tmax: read-out: Peak time tmax; for Cmax: read-out: Plasma concentration Cmax; for AUC(0-inf): read-out: Area under curve AUC0-∞; for MRT: read-out: Average residence time MRT; for half-life: read-out: Half life t1/2 (converted)
How it was run: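 Fasted male Balb/c mice (12 per group) received 5 mg/kg p.o. in 0.5% CMC-Na/1% Tween80. Plasma and whole brain were collected […]. Compound was quantified by LC/MS/MS after acetonitrile precipitation, with PK parameters from noncompartmental analysis.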

5-HT2A receptor = 5-HT2A receptor (Homo sapiens, UniProt P28223); experiment: Calcium ion mobility in cells stably expressing 5-HT2A receptors (Flp-In-CHO-5HT2A, FLIPR); assay type: cell-based; parameters: expressed in transfected cells; conditions: Flp-In-CHO-5HT2A stable pool, 5HT stimulation
Sequence of 5-HT2A receptor (P28223 whole entry): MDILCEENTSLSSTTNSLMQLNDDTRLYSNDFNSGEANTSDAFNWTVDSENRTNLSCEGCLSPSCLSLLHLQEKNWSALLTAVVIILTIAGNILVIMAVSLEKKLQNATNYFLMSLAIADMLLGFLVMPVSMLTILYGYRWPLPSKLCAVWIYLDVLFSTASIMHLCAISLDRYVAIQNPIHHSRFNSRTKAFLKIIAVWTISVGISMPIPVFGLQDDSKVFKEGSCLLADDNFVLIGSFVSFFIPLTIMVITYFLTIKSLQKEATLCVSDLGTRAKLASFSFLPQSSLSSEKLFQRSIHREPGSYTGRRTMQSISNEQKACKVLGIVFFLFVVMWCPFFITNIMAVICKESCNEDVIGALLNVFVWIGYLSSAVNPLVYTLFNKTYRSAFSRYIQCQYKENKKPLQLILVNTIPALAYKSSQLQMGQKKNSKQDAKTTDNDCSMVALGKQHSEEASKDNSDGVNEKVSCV

T1 sequence (P35462 whole entry): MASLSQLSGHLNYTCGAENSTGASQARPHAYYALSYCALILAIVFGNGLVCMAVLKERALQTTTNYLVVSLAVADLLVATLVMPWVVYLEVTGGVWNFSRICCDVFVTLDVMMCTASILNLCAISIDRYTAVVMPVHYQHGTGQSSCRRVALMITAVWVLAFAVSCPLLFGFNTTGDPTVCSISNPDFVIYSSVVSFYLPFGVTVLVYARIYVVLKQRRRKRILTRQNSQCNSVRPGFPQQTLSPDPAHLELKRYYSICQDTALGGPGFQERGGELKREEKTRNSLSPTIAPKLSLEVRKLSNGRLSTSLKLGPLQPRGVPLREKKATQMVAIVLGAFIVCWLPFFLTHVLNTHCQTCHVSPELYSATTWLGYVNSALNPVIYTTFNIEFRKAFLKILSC

EC50 (D3 receptor) | AUC(0-t) ([1]; Brain) | Tmax ([1]; Brain) | Cmax ([1]; Brain) | AUC(0-t) ([1]; Plasma) | AUC(0-inf) ([1]; Plasma) | MRT ([1]; Plasma) | half-life ([1]; Plasma) | Tmax ([1]; Plasma) | Cmax ([1]; Plasma) | IC50 (5-HT2A receptor) | AUC(0-inf) ([1]; Brain) | Compound
1.7 nM | 4830 ng·h/mL | 1 h | 1200 ng/mL | 1040 ng·h/mL | 1230 ng·h/mL | 3.9 h | 2.8 h | 0.5 h | 391 ng/mL | 5.2 nM | 4880 ng·h/mL | O=C(NC1CC(CCN2CCN(c3cccc(Cl)c3Cl)CC2)C1)c1ncco1 (stereo not shown) [Example 12, N-(3-(2-(4-(2,3-Dichlorophenyl)piperazin-1-yl)ethyl)cyclobutyl)oxazole-2-carboxamide]
0.7 nM | 5200 ng·h/mL | 1 h | 1870 ng/mL | 1620 ng·h/mL | 1710 ng·h/mL | 2.4 h | 1.8 h | 0.5 h | 715 ng/mL | 11.6 nM |  | O=C(N[C@H]1C[C@@H](CCN2CCN(c3cccc(Cl)c3Cl)CC2)C1)c1ncco1 [Example 12B, N-(Cis-3-(2-(4-(2,3-dichlorophenyl)piperazin-1-yl)ethyl)cyclobutyl)oxazole-2-carbo xamide]

Continued, compound first:

Compound | EC50 (D3 receptor) | AUC(0-t) ([1]; Brain) | Tmax ([1]; Brain) | Cmax ([1]; Brain) | AUC(0-t) ([1]; Plasma) | AUC(0-inf) ([1]; Plasma) | MRT ([1]; Plasma) | half-life ([1]; Plasma) | Tmax ([1]; Plasma) | Cmax ([1]; Plasma) | IC50 (5-HT2A receptor) | AUC(0-inf) ([1]; Brain)
O=C(N[C@H]1C[C@H](CCN2CCN(c3cccc(Cl)c3Cl)CC2)C1)c1nccs1 [Example 7A, N-(Trans-3-(2-(4-(2,3-dichlorophenyl)piperazin-1-yl)ethyl)cyclobutyl)thiazole-2-car boxamide] | 1 nM | 1350 ng·h/mL | 1 h | 179 ng/mL | 395 ng·h/mL | 501 ng·h/mL | 5.3 h | 3.7 h | 1 h | 102 ng/mL | 2.74 nM | 
O=C(N[C@H]1C[C@H](CCN2CCN(c3cccc(Cl)c3Cl)CC2)C1)C1(O)CC1 [Example 6A, N-(Trans-3-(2-(4-(2,3-dichlorophenyl)piperazin-1-yl)ethyl)cyclobutyl)-1-hydroxycy clopropane-1-carboxamide] | 0.6 nM | 1080 ng·h/mL | 1 h | 321 ng/mL | 1420 ng·h/mL | 1440 ng·h/mL | 1.8 h | 1.3 h | 0.5 h | 745 ng/mL | 3.07 nM | 
O=C(N[C@H]1C[C@H](CCN2CCN(c3cccc(Cl)c3Cl)CC2)C1)c1cccc2ncccc12 [Example 19A, N-(Trans-3-(2-(4-(2,3-dichlorophenyl)piperazin-1-yl)ethyl)cyclobutyl)quinoline-5-c arboxamide] | 1.6 nM | 1240 ng·h/mL | 1 h | 372 ng/mL | 456 ng·h/mL | 471 ng·h/mL | 1.8 h | 1.7 h | 0.5 h | 349 ng/mL | 7.67 nM | 
O=C(N[C@H]1C[C@H](CCN2CCN(c3cccc(Cl)c3Cl)CC2)C1)c1ncco1 [Example 12A, N-(Trans-3-(2-(4-(2,3-dichlorophenyl)piperazin-1-yl)ethyl)cyclobutyl)oxazole-2-car boxamide] | 0.6 nM | 8130 ng·h/mL | 1 h | 1760 ng/mL | 1840 ng·h/mL | 1970 ng·h/mL | 3.1 h | 1.9 h | 0.5 h | 673 ng/mL | 2.21 nM | 

From patent EP4332093A1, “SALT CONTAINING PIPERAZINE POLYCYCLIC DERIVATIVE, CRYSTAL FORM THEREOF, PREPARATION METHOD THEREFOR, AND USE THEREOF” (Shanghai Hansoh Biomedical Co., Ltd., priority 2021, dated 2022)
